In patent publication US8309546B2, “Morpholinopurine derivatives” (Daiichi Sankyo Company, Limited, priority 2008, dated 2012):

Experiments:
[1] = test system: S6 (serine 235 and 236) phosphorylation in AN3CA tumor; assay: S6 phosphorylation inhibition assay in xenograft; assay type: in vivo, female nude mouse; conditions: Mus musculus, AN3-CA, oral, 6 hr after dosing
Method: (§1) A tumor section was prepared from a human endometrial cancer cell strain AN3CA tumor mass formed in a female nude mouse as subcutaneously transplanted tumor and a xenograft model was prepared by subcutaneously transplanting the tumor to a female nude mouse. The test compound at a predetermined concentration was orally administered. After a predetermined time, the anesthetized mouse was exsanguinated to death, and a tumor mass was isolated. The tumor mass was crushed using a lysis buffer containing inhibitors of proteases and dephosphorylating enzymes (Cell Signaling Technology, Inc.) and the supernatant was separated by centrifugation to obtain a tumor extract. The protein content of the tumor extract was measured using DC Protein Assay Kit (Bio-Rad Laboratories, Inc.) and phosphorylation conditions of Akt (threonine 308) and S6 (serine 235 and 236) were analyzed by a usual technique of western blotting using tumor extracts containing the same amount of protein. The primary antibody and the secondary antibody used for detecting each molecule were rabbit anti-phospho-Akt(T308) antibody and HRP-labeled goat anti-rabbit IgG antibody or mouse anti-phospho-S6(S235/236) antibody and HRP-labeled sheep anti-mouse IgG antibody.
(§2) The signal intensity detected using an image analyzer Typhoon 9400 (GE Healthcare) was quantified, and the phosphorylation inhibition rate (%) was calculated by the following formula. Phosphorylation inhibitory activity (%) of Akt and S6 after treatment with test compound=100−100×(B/A) A: Signal intensity derived from phosphorylated protein in tumor mass isolated from mouse untreated with test compound B: Signal intensity derived from phosphorylated protein in tumor mass isolated from mouse treated with test compound

[2] = target: T1, human mTOR (His-tagged mTOR (1362C)) (Homo sapiens, UniProt P42345); assay: mTOR kinase activity inhibition assay; assay type: biochemical; conditions: HTRF, read-out: IC50 against mTOR
T1 construct: the 1362 to 2549 amino acid portion on the C terminus side of human mTOR; His tag (N); made in house
T1 sequence (P42345 1362-2549): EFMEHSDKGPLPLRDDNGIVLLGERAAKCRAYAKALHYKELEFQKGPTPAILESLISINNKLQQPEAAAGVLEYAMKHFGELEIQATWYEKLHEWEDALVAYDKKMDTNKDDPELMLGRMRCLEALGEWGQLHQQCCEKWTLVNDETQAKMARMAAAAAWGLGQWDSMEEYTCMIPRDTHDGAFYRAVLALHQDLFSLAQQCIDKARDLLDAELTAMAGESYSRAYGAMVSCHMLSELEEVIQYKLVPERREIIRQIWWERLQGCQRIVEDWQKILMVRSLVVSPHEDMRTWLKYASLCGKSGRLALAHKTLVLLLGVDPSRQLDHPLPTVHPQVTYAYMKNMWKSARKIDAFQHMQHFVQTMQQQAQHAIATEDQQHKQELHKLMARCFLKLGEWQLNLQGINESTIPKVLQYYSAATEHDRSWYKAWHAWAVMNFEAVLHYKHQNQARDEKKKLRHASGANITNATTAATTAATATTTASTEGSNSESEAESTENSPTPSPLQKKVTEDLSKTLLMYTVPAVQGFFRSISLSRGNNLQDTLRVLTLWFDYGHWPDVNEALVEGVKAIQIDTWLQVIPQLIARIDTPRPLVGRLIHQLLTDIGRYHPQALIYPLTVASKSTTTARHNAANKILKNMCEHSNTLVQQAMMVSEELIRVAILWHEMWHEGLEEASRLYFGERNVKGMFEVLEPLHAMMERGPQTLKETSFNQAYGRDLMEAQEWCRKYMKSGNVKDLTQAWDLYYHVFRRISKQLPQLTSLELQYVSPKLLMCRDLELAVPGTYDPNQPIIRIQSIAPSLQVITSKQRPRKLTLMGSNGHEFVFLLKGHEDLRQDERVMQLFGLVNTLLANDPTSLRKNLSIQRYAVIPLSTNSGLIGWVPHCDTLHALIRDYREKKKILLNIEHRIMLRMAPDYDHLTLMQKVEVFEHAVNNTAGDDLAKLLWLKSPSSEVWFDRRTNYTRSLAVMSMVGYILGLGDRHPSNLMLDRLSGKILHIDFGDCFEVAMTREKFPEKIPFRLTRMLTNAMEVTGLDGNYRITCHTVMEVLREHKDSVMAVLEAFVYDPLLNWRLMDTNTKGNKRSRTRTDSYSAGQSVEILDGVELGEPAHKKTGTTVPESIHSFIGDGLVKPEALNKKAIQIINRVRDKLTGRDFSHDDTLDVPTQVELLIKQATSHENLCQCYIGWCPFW
Outline: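 Crude His-tagged mTOR (aa 1362–2549) from stable HEK293 cells, with 8 μg/ml biotinylated peptide in 50 mM HEPES pH 7.5, 20 mM MnCl2; compound diluted in 20 μM ATP solution, reaction 3 h at room temperature. Phospho-peptide detected by HTRF (anti-phospho-S6K Thr389 cryptate/streptavidin-XL665, overnight at 4°C), 665/620 nm ratio. IC50 derived from curve fit of % inhibition.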

[3] = test system: Akt (threonine 308) phosphorylation in AN3CA tumor; assay: Akt phosphorylation inhibition assay in xenograft; assay type: in vivo, female nude mouse; conditions: Mus musculus, AN3-CA, oral, 6 hr after dosing
Method: as §1, §2

IC50 [2] [nM] | Structure (SMILES) | inhibition at 10 mg/kg [1] [%] | inhibition at 10 mg/kg [3] [%]
< 10 | CNc1ncc(-c2nc(N3CCOCC3)c3nc(N4CCN(S(C)(=O)=O)[C@H](C)C4)n(CC(F)(F)F)c3n2)cn1 [Example 106, N-Methyl-5-{8-[(3R)-3-methyl-4-(methylsulfonyl)piperazin-1-yl]-6-morpholin-4-yl-9-(2,2,2-trifluoroethyl)-9H-purin-2-yl}pyrimidin-2-amine] | > 90 | > 60
< 10 | Nc1ncc(-c2nc(N3CCOCC3)c3nc(N4CCN(C(=O)CO)CC4)n(CC(F)(F)F)c3n2)cn1 [Example 67, 2-{4-[2-(2-Aminopyrimidin-5-yl)-6-morpholin-4-yl-9-(2,2,2-trifluoroethyl)-9H-purin-8-yl]piperazin-1-yl}-2-oxoethanol] | 70 to 90 | 30 to 60
< 10 | C[C@H]1CN(c2nc3c(N4CCOCC4)nc(-c4cnc(N)nc4)nc3n2CC(F)(F)F)CCN1S(C)(=O)=O [Example 62, 5-{8-[(3S)-3-Methyl-4-(methylsulfonyl)piperazin-1-yl]-6-morpholin-4-yl-9-(2,2,2-trifluoroethyl)-9H-purin-2-yl}pyrimidin-2-amine] | > 90 | 30 to 60
< 10 | CC(=O)N1[C@H](C)CN(c2nc3c(N4CCOCC4)nc(-c4cnc(N)nc4)nc3n2CC2CC2)C[C@@H]1C [Example 98, 5-{8-[4-Acetyl-cis-3,5-dimethylpiperazin-1-yl]-9-(cyclopropylmethyl)-6-morpholin-4-yl-9H-purin-2-yl}pyrimidin-2-amine] | > 90 | 30 to 60
10 to 30 | CC(C)Cn1c(N2CCN(C(=O)C[C@H](C)O)CC2)nc2c(N3CCOCC3)nc(-c3cnc(N)nc3)nc21 [Example 82, (2S)-4-{4-[2-(2-Aminopyrimidin-5-yl)-9-isobutyl-6-morpholin-4-yl-9H-purin-8-yl]piperazin-1-yl}-4-oxobutan-2-ol] | > 90 | > 60
< 10 | Nc1ncc(-c2nc(N3CCOCC3)c3nc(N4CCN(C=O)CC4)n(CC(F)(F)F)c3n2)cn1 [Example 71, 4-[2-(2-Aminopyrimidin-5-yl)-6-morpholin-4-yl-9-(2,2,2-trifluoroethyl)-9H-purin-8-yl]piperazine-1-carboaldehyde] | > 90 | > 60
10 to 30 | CC(C)Cn1c(N2CCN(C(=O)CO)CC2)nc2c(N3CCOCC3)nc(-c3cnc(N)nc3)nc21 [Example 89, 2-{4-[2-(2-Aminopyrimidin-5-yl)-9-isobutyl-6-morpholin-4-yl-9H-purin-8-yl]piperazin-1-yl}-2-oxoethanol] | 70 to 90 | > 60
< 10 | CC(C)Cn1c(N2CCN(C(=O)CO)CC2)nc2c(N3CCOC[C@@H]3C)nc(-c3cnc(N)nc3)nc21 [Example 130, 2-(4-{2-(2-Aminopyrimidin-5-yl)-9-isobutyl-6-[(3S)-3-methylmorpholin-4-yl]-9H-purin-8-yl}piperazin-1-yl)-2-oxoethanol] | > 90 | 30 to 60
10 to 30 | CC(C)Cn1c(N2CCN(C(=O)[C@@H](C)O)CC2)nc2c(N3CCOCC3)nc(-c3cnc(N)nc3)nc21 [Example 93] | > 90 | > 60
< 10 | CC[C@H]1CN(c2nc3c(N4CCOCC4)nc(-c4cnc(N)nc4)nc3n2CC(F)(F)F)CCN1C(C)=O [Example 75, 5-{8-[(3S)-4-Acetyl-3-ethylpiperazin-1-yl]-6-morpholin-4-yl-9-(2,2,2-trifluoroethyl)-9H-purin-2-yl}pyrimidin-2-amine] | > 90 | > 60
10 to 30 | CC(C)Cn1c(N2CCN(C(=O)[C@H](C)O)CC2)nc2c(N3CCOC[C@@H]3C)nc(-c3cnc(N)nc3)nc21 [Example 131, (2S)-1-(4-{2-(2-Aminopyrimidin-5-yl)-9-isobutyl-6-[(3S)-3-methylmorpholin-4-yl]-9H-purin-8-yl}piperazin-1-yl)-1-oxopropan-2-ol] | > 90 | > 60
< 10 | CS(=O)(=O)C1CCN(c2nc3c(N4CCOCC4)nc(-c4cnc(N)nc4)nc3n2CC(F)(F)F)CC1 [Example 57, 5-{8-[4-(Methylsulfonyl)piperidin-1-yl]-6-morpholin-4-yl-9-(2,2,2-trifluoroethyl)-9H-purin-2-yl}pyrimidin-2-amine] | > 90 | 30 to 60
10 to 30 | CC(C)Cn1c(N2CCN(C(=O)[C@H](C)O)[C@H](C)C2)nc2c(N3CCOCC3)nc(-c3cnc(N)nc3)nc21 [Example 103, (2S)-1-{(2R)-4-[2-(2-Aminopyrimidin-5-yl)-9-isobutyl-6-morpholin-4-yl-9H-purin-8-yl]-2-methylpiperazin-1-yl}-1-oxopropan-2-ol] | > 90 | > 60
< 10 | CC(C)Cn1c(N2CCN(C=O)[C@@H](C)C2)nc2c(N3CCOCC3)nc(-c3cnc(N)nc3)nc21 [Example 102, (2S)-4-[2-(2-Aminopyrimidin-5-yl)-9-isobutyl-6-morpholin-4-yl-9H-purin-8-yl]-2-methylpiperazine-1-carboaldehyde] | > 90 | > 60
< 10 | CC(=O)N1CCN(c2nc3c(N4CCOCC4)nc(-c4cnc(N)nc4)nc3n2CC(C)C)C[C@@H]1C [Example 101, 5-{8-[(3S)-4-Acetyl-3-methylpiperazin-1-yl]-9-isobutyl-6-morpholin-4-yl-9H-purin-2-yl}pyrimidin-2-amine] | > 90 | > 60
< 10 | C[C@H](O)CC(=O)N1CCN(c2nc3c(N4CCOCC4)nc(-c4cnc(N)nc4)nc3n2CC(F)(F)F)CC1 [Example 69, (2S)-4-{4-[2-(2-Aminopyrimidin-5-yl)-6-morpholin-4-yl-9-(2,2,2-trifluoroethyl)-9H-purin-8-yl]piperazin-1-yl}-4-oxobutan-2-ol] | > 90 | > 60
< 10 | CC(=O)N1CCN(c2nc3c(N4CCOCC4)nc(-c4cnc(N)nc4)nc3n2CC(F)(F)F)C[C@H]1C [Example 60, 5-{8-[(3R)-4-Acetyl-3-methylpiperazin-1-yl]-6-morpholin-4-yl-9-(2,2,2-trifluoroethyl)-9H-purin-2-yl}pyrimidin-2-amine] | > 90 | > 60
< 10 | C[C@H](O)C(=O)N1CCN(c2nc3c(N4CCOCC4)nc(-c4cnc(N)nc4)nc3n2CC(F)(F)F)CC1 [Example 68, (2S)-1-{4-[2-(2-Aminopyrimidin-5-yl)-6-morpholin-4-yl-9-(2,2,2-trifluoroethyl)-9H-purin-8-yl]piperazin-1-yl}-1-oxopropan-2-ol] | > 90 | > 60
10 to 30 | CC(C)Cn1c(N2CCN(C(=O)C[C@H](C)O)[C@H](C)C2)nc2c(N3CCOCC3)nc(-c3cnc(N)nc3)nc21 [Example 86, (2S)-4-{(2R)-4-[2-(2-Aminopyrimidin-5-yl)-9-isobutyl-6-morpholin-4-yl-9H-purin-8-yl]-2-methylpiperazin-1-yl}-4-oxobutan-2-ol] | > 90 | > 60
< 10 | CC[C@@H]1CN(c2nc3c(N4CCOCC4)nc(-c4cnc(N)nc4)nc3n2CC(F)(F)F)CCN1C(=O)[C@H](C)O [Example 79] | > 90 | > 60
10 to 30 | C[C@@H]1CN(c2nc3c(N4CCOCC4)nc(-c4cnc(N)nc4)nc3n2CC(F)(F)F)CCN1S(C)(=O)=O [Example 61, 5-{8-[(3R)-3-Methyl-4-(methylsulfonyl)piperazin-1-yl]-6-morpholin-4-yl-9-(2,2,2-trifluoroethyl)-9H-purin-2-yl}pyrimidin-2-amine] | > 90 | > 60
< 10 | CC(=O)N1[C@H](C)CN(c2nc3c(N4CCOCC4)nc(-c4cnc(N)nc4)nc3n2CC(F)(F)F)C[C@@H]1C [Example 115, 5-[8-(4-Acetyl-cis-3,5-dimethylpiperazin-1-yl)-6-morpholin-4-yl-9-(2,2,2-trifluoroethyl)-9H-purin-2-yl]pyrimidin-2-amine] | > 90 | > 60
